{"source": "paper PMC4972573", "about": "(Nature structural & molecular biology, 2013)", "target": "GluK2 Y521C L783C (Rattus norvegicus, UniProt P42260, Y521C/L783C)", "sequence (P42260 32-908 Y521C/L783C)": "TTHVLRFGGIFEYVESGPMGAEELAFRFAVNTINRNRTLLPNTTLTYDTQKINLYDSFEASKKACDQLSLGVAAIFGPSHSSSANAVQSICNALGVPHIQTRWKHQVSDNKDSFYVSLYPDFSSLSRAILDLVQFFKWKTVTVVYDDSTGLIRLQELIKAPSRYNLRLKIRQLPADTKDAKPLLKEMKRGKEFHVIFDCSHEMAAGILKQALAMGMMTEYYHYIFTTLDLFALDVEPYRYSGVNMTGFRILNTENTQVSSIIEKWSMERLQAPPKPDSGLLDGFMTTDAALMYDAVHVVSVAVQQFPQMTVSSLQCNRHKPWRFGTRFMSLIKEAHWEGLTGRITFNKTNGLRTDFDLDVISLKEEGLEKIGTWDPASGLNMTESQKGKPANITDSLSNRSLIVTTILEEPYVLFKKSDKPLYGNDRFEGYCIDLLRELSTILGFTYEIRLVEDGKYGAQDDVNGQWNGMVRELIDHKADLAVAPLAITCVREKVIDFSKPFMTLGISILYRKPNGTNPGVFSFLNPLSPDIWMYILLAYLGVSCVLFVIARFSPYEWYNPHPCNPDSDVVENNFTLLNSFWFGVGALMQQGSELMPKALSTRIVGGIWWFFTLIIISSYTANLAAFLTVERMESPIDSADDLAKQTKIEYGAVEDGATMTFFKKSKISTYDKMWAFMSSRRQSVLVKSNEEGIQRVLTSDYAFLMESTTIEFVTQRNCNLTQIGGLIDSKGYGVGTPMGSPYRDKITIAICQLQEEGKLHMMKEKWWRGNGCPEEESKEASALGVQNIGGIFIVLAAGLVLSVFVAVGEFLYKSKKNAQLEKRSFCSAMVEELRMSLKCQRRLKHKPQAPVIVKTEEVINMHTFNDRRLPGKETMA", "assay": "outside-out patch single-channel and macroscopic currents", "type": "cell-based"}
{"smiles": "N[C@@H](CCC(=O)O)C(=O)O", "note": "[L-Glu]", "values": [{"measurement": "outside-out patch single-channel and macroscopic currents", "result": "Unitary current events elicited by L-Glu acting on Y521C L783C channels"}]}
